These results are taken from publication PMC12401824, “Studies on the impact of modifications at the Gln-Trp site in RM2-based GRPR ligands” (EJNMMI Research, 2025).

SMILES strings stand for the structures. Like-named read-outs stand apart in the source and are kept apart here. Starred links: 1 amine or outer side, 2 acyl side, 3 side chain; linkers in the order of their positions; H or OH if unused. Non-standard residues stand in square brackets, D forms with d. Residues, ends and D or L forms follow the SMILES beside them. *: point of attachment. X2 = O=C(O)CN1CCN(CC(=O)O)CCN(CC(=O)NCc2ccc(NC(=O)COCC(=O)*)cc2)CCN(CC(=O)O)CC1; DOTA = O=C(O)CN1CCN(CC(=O)O)CCN(CC(=O)*)CCN(CC(=O)O)CC1; NODAGA = O=C(O)CN1CCN(CC(=O)O)CCN(C(CCC(=O)*)C(=O)O)CC1; NOTA = O=C(O)CN1CCN(CC(=O)O)CCN(CC(=O)*)CC1; Sta = CC(C)C[C@H](N)[C@@H](O)CC(=O)O; Bta = N[C@@H](Cc1csc2ccccc12)C(=O)O; X1 = O=C(CN1CCC(N[*:1])CC1)[*:2]; NHCH(iBu)2 = CC(C)CC(CC(C)C)N*; hSer = N[C@@H](CCO)C(=O)O

For one series, the target named is T1, GRPR (Homo sapiens, UniProt P30550).
T1 construct: host or cells: PC-3 cells
T1 sequence (P30550 whole entry): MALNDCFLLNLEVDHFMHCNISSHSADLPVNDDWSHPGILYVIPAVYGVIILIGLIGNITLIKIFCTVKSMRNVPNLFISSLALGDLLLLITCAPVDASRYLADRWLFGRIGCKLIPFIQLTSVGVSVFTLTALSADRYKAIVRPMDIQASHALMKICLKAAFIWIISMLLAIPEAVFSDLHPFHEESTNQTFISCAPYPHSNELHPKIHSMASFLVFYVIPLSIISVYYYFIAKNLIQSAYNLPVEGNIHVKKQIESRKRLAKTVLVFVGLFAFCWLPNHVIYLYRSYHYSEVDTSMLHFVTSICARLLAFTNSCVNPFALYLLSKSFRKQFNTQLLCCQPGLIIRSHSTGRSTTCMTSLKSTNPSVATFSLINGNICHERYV
The series can be described thus: GRPR affinity (IC50), competitive binding on PC-3 cells vs [3-[^125I]I-D-Tyr^6]MJ9. To be noted: 2 h, rt. Here is the method: IC50 values of all compounds were determined according to a previously published procedure. Detailed information on culturing PC-3 cells and on the execution of IC50 studies is provided in the supplementary materials. In brief, competitive binding studies were performed in triplicate on PC-3 cells (1.5 × 10^5 cells in 1 mL/well) after incubation at room temperature for 2 h, using [3-[^125I]I-D-Tyr^6]MJ9 (0.2 nM/well) as radiolabeled reference (n = 3).
After removal of the culture medium, the cells were washed once with 500 µL of HBSS (Hank’s balanced salt solution, Biochrom GmbH, Berlin, Germany, with addition of 1% bovine serum albumin (BSA, v/v)) and left in 200 µL HBSS (1% BSA, v/v) for 9 min at rt for equilibration. Next, 25 µL per well of solutions, containing either HBSS (1% BSA, v/v) as control or the respective compound in increasing concentration (10^-10 M – 10^-4 M in HBSS (1% BSA, v/v)), were added with subsequent addition of 25 µL of [3-[^125I]I-D-Tyr^6]MJ9 (2.0 nm) in HBSS (1% BSA, v/v).
All experiments were performed in triplicate for each concentration. After 2 h incubation at rt, the experiment was terminated by removal of the medium and consecutive rinsing with 300 µL of HBSS (1% BSA, v/v). The media of both steps were combined in one fraction and represent the amount of free radiolabeled reference. Afterwards, the cells were lysed with 300 µL of 1 M NaOH for at least 15 min and united with the 300 µL NaOH of the following washing step. Quantification of bound and free radiolabeled reference was accomplished in a γ-counter. IC50 determination for each conjugate was repeated twice.

Series [1] can be described thus: Metabolic stability in vitro in human serum (37 °C, 72 ± 2 h). It counts as in vitro ADME. To be noted: ^177Lu-labeled NeoB and UL analogs, n = 3. On the procedure:
Metabolic stability in vitro was determined applying a procedure published by Linder et al. that was slightly modified. Immediately after labeling, human serum (200 µL) was added to the labeling solution (~ 30 µL) and the mixture was incubated at 37 °C for 72 ± 2 h. Proteins were precipitated by treatment with ice-cold ethanol (150 µL) and ice-cold acetonitrile (450 µL), followed by centrifugation at 13,000 rpm for 5 min. The supernatants were decanted and further analyzed using radio RP-HPLC.

[2] abbreviates: Cu-complexed, n = 3, read-out: IC50 (nM), Cu-labeled.
Setting [3] is: Ga-complexed, n = 3, read-out: IC50 (nM), Ga-labeled.

By IC50 is commonly meant the point on the concentration scale where inhibition reaches its midpoint. On to `CC(C)C[C@H](NC(=O)C[C@H](O)[C@H](CC(C)C)NC(=O)[C@H](Cc1c[nH]cn1)NC(=O)CNC(=O)[C@@H](NC(=O)[C@H](C)NC(=O)[C@H](Cc1c[nH]c2ccccc12)NC(=O)[C@H](CCO)NC(=O)[C@@H](Cc1ccccc1)NC(=O)CN1CCC(NC(=O)CCC(C(=O)O)N2CCN(CC(=O)O)CCN(CC(=O)O)CC2)CC1)C(C)C)C(N)=O` (stereo partly drawn) [NODAGA-[des-DOTA, Hse^7]RM2] ({NODAGA}-[X1][dF][hSer]WAVGH[Sta]L-NH2), for which the IC50 amounted to 11.8 ± 2.1 nM at GRPR (setting [2]) and 7.2 ± 0.7 nM at GRPR (setting [3]).
As to `CC(C)C[C@H](NC(=O)C[C@H](O)[C@H](CC(C)C)NC(=O)[C@H](Cc1c[nH]cn1)NC(=O)CNC(=O)[C@@H](NC(=O)[C@H](C)NC(=O)[C@H](Cc1csc2ccccc12)NC(=O)[C@H](CCC(N)=O)NC(=O)[C@@H](Cc1ccccc1)NC(=O)CN1CCC(NC(=O)CN2CCN(CC(=O)O)CCN(CC(=O)O)CC2)CC1)C(C)C)C(N)=O` [NOTA-[des-DOTA, Bta^8]RM2] ({NOTA}-[X1][dF]Q[Bta]AVGH[Sta]L-NH2), the IC50 at GRPR (setting [2]) worked out at 2.8 ± 0.2 nM; at GRPR (setting [3]), 1.8 nM.
Take `CC(C)C[C@H](NC(=O)C[C@H](O)[C@H](CC(C)C)NC(=O)[C@H](Cc1c[nH]cn1)NC(=O)CNC(=O)[C@@H](NC(=O)[C@H](C)NC(=O)[C@H](Cc1c[nH]c2ccccc12)NC(=O)[C@H](CCO)NC(=O)[C@@H](Cc1ccccc1)NC(=O)CN1CCC(NC(=O)CN2CCN(CC(=O)O)CCN(CC(=O)O)CC2)CC1)C(C)C)C(N)=O` [NOTA-[des-DOTA, Hse^7]RM2] ({NOTA}-[X1][dF][hSer]WAVGH[Sta]L-NH2): the IC50 came to 14.2 ± 2.7 nM on GRPR (setting [2]) and 8.4 ± 1 nM on GRPR (setting [3]).
`CC(C)CC(CC(C)C)NC(=O)[C@H](Cc1cnc[nH]1)NC(=O)CNC(=O)[C@@H](NC(=O)[C@H](C)NC(=O)[C@H](Cc1c[nH]c2ccccc12)NC(=O)[C@H](CCC(N)=O)NC(=O)[C@@H](Cc1ccccc1)NC(=O)COCC(=O)Nc1ccc(CNC(=O)CN2CCN(CC(=O)O)CCN(CC(=O)O)CCN(CC(=O)O)CC2)cc1)C(C)C` [NeoB, reference compound]: the “Percentage of intact compound in human serum” value (“Percentage of intact compound” below) in series [1] was determined as 60.8 ± 1.2%.
For `CC(C)CC(CC(C)C)NC(=O)[C@H](Cc1c[nH]cn1)NC(=O)CNC(=O)[C@@H](NC(=O)[C@H](C)NC(=O)[C@H](Cc1csc2ccccc12)NC(=O)[C@H](CCC(N)=O)NC(=O)[C@@H](Cc1ccccc1)NC(=O)COCC(=O)Nc1ccc(CNC(=O)CN2CCN(CC(=O)O)CCN(CC(=O)O)CCN(CC(=O)O)CC2)cc1)C(C)C` [[Bta^8]NeoB] (X2-[dF]Q[Bta]AVGH-{NHCH(iBu)2}; N-terminus and C-terminus assumed), in series [1], the “Percentage of intact compound” value is listed as 36.2 ± 2.6%.
`CC(C)C[C@H](NC(=O)C[C@H](O)[C@H](CC(C)C)NC(=O)[C@H](Cc1c[nH]cn1)NC(=O)CNC(=O)[C@@H](NC(=O)[C@H](C)NC(=O)[C@H](Cc1csc2ccccc12)NC(=O)[C@H](CCC(N)=O)NC(=O)[C@@H](Cc1ccccc1)NC(=O)CN1CCC(NC(=O)CN2CCN(CC(=O)O)CCN(CC(=O)O)CCN(CC(=O)O)CC2)CC1)C(C)C)C(N)=O` [[Bta^8]RM2] ({DOTA}-[X1][dF]Q[Bta]AVGH[Sta]L-NH2): the concentration for half-maximal inhibition (IC50) at GRPR (setting [2]) was found to be 4.2 ± 0.6 nM; at GRPR (setting [3]) it was 2.3 ± 0.1 nM.
On to `CC(C)CC(CC(C)C)NC(=O)[C@H](Cc1c[nH]cn1)NC(=O)CNC(=O)[C@@H](NC(=O)[C@H](C)NC(=O)[C@H](Cc1c[nH]c2ccccc12)NC(=O)[C@H](CCO)NC(=O)[C@@H](Cc1ccccc1)NC(=O)COCC(=O)Nc1ccc(CNC(=O)CN2CCN(CC(=O)O)CCN(CC(=O)O)CCN(CC(=O)O)CC2)cc1)C(C)C` [[Hse^7]NeoB] (X2-[dF][hSer]WAVGH-{NHCH(iBu)2}; N-terminus and C-terminus assumed), for which, in series [1], the “Percentage of intact compound” value was determined as 57.4 ± 2.1%.
Consider `CC(C)C[C@H](NC(=O)C[C@H](O)[C@H](CC(C)C)NC(=O)[C@H](Cc1c[nH]cn1)NC(=O)CNC(=O)[C@@H](NC(=O)[C@H](C)NC(=O)[C@H](Cc1c[nH]c2ccccc12)NC(=O)[C@H](CCO)NC(=O)[C@@H](Cc1ccccc1)NC(=O)CN1CCC(NC(=O)CN2CCN(CC(=O)O)CCN(CC(=O)O)CCN(CC(=O)O)CC2)CC1)C(C)C)C(N)=O` [[Hse^7]RM2] ({DOTA}-[X1][dF][hSer]WAVGH[Sta]L-NH2), for which the IC50 came out at 33 ± 2.7 nM at GRPR (setting [2]) and 7.7 ± 0.7 nM on GRPR (setting [3]).
Regarding `CC(C)CC(CC(C)C)NC(=O)[C@H](Cc1c[nH]cn1)NC(=O)CNC(=O)[C@@H](NC(=O)[C@H](C)NC(=O)[C@](C)(Cc1c[nH]c2ccccc12)NC(=O)[C@H](CCC(N)=O)NC(=O)[C@@H](Cc1ccccc1)NC(=O)COCC(=O)Nc1ccc(CNC(=O)CN2CCN(CC(=O)O)CCN(CC(=O)O)CCN(CC(=O)O)CC2)cc1)C(C)C` [[α-Me-Trp^8]NeoB], in series [1], the “Percentage of intact compound” value is 70.7 ± 2.8%.
